Laboratory results: patent US5428031A, “Methods of treating cardiac arrhythmia” (priority 1993, dated 1995)
Where two headings read alike, the source gives them in different places. Each block holds one molecule with its values, some of them ahead of it.

Experiments:
IKr = conditions: cited from earlier work
phospholipase = conditions: cited from earlier work
IKs = conditions: cited from earlier work
thyroid function = conditions: cited from earlier work
adrenergic = conditions: cited from earlier work
Ca2+ currents = conditions: cited from earlier work
[1] = cited from earlier work
Na+ currents = conditions: cited from earlier work
[2] = target: T1, IKs (slowly activating delayed rectifier K+ current) (Cavia porcellus, UniProt O70344); assay: cell-based; type: cell-based, guinea pig
T1 construct: Guinea pig ventricular myocytes were isolated; endogenous in cells; host or cells: isolated guinea pig ventricular myocytes
Protocol: Current amplitude is measured as the difference from the initial instantaneous current level following the capacitance discharge after changing the transmembrane voltage from -50 mV to +50 mV, to the current level at the end of the 1 second voltage step. Normally, an increase in the current amplitude occurs as a function of time and voltage during depolarization of the cardiac cell membrane and this increasing current has been defined as the delayed rectifier K^+ current (IK). […] IKs current occurs as a consequence of time- and voltage-dependent opening of ionic channels or pores in the cardiac cell membrane that allow the relatively selective flow of potassium ions (K^+) from the inside to the outside of the cell, that is, down the voltage and concentration gradient for K^+ ions that is inherent in cardiac cells. Thus, block of the IKs current ultimately reflects block of certain ion channels or pores in the cardiac cell membrane. However, the single pores or channels thought to underlie the IKs current have yet to be measured or identified at the single channel level.
(§1) Guinea pig ventricular myocytes were isolated using a modification of the procedure described by Mitra R and Morad M., "A Uniform Enzymatic Method for Dissociation of Myocytes from Hearts and Stomachs of Nertilorates", Am. J. Physiol. […] Excised hearts were perfused through the aorta (retrograde fashion) at a rate of 10 ml/min with oxygenated, warmed (37° C.) solutions described below. […] The head was then perfused with the same nominally Ca^2+ -free solution containing 150 units/ml Type II collagenase (Worthington) and 0.5 units/ml Type XIV protease (Sigma) for 8 minutes. This perfusate was followed by a Tyrode's solution containing 0.2 mM CaCl2 (without enzymes) for 5 minutes. The digested ventricles were cut into small pieces and gently shaken until cells were visibly dispersed. The cells were stored at room temperature until use, within 8 hours after isolation.
(§2) The suction microelectrode technique described by Giles, W. R. and Shibata, E. F., "Voltage clamp of bull-frog cardiac pacemaker cells: a quantitative, analysis of potassium currents". J. Physiol. […] Microelectrodes were made by using a two stage puller from square bore (1.0 mm o.d.) borosilicate capillary tubing. […] After establishing whole-cell recording mode, negative pressure was maintained on the pipette using a 1 ml gas-tight syringe attached via air tight tubing to the suction port of the microelectrode holder. This minimized dialysis of the cell with the pipette solution.
(§3) To record K^+ currents, the cells were bathed in a Ca^2+ -free Tyrode's :solution containing […] nisoldipine. […] A List EPC-7 clamp amplifier was used to voltage clamp the isolated cells. […] A variety of voltage pulse protocols were used to measure Ca^2+ current and three types of K^+ currents: inward rectifier (IK1), rapidly activating delayed rectifier (IKr) and the slowly activating delayed rectifier (IKs). Sanguinetti M. C. and Jurkiewicz, N. K., "Two components of cardiac delayed rectifier K^+ current: Differential sensitivity to block by Class III antiarrhythmic agents". […] Data was analyzed as % block from control membrane currents.
(§4) Nisoldipins was prepared as a 4 mM stock solution in polyethylne glycol 200. Compounds tested in this series were prepared as 10 mM stock solutions in polyethylene glycol 400 or dimethyl sulfoxide.

[3] = target: T2, IKr (rapidly activating delayed rectifier K+ current) (Cavia porcellus, UniProt O08703); assay: voltage clamp measurement of IKr block in isolated guinea pig ventricular myocytes; type: cell-based
T2 construct: Guinea pig ventricular myocytes were isolated; endogenous in cells; host or cells: isolated guinea pig ventricular myocytes
T2 sequence (O08703 1-1294): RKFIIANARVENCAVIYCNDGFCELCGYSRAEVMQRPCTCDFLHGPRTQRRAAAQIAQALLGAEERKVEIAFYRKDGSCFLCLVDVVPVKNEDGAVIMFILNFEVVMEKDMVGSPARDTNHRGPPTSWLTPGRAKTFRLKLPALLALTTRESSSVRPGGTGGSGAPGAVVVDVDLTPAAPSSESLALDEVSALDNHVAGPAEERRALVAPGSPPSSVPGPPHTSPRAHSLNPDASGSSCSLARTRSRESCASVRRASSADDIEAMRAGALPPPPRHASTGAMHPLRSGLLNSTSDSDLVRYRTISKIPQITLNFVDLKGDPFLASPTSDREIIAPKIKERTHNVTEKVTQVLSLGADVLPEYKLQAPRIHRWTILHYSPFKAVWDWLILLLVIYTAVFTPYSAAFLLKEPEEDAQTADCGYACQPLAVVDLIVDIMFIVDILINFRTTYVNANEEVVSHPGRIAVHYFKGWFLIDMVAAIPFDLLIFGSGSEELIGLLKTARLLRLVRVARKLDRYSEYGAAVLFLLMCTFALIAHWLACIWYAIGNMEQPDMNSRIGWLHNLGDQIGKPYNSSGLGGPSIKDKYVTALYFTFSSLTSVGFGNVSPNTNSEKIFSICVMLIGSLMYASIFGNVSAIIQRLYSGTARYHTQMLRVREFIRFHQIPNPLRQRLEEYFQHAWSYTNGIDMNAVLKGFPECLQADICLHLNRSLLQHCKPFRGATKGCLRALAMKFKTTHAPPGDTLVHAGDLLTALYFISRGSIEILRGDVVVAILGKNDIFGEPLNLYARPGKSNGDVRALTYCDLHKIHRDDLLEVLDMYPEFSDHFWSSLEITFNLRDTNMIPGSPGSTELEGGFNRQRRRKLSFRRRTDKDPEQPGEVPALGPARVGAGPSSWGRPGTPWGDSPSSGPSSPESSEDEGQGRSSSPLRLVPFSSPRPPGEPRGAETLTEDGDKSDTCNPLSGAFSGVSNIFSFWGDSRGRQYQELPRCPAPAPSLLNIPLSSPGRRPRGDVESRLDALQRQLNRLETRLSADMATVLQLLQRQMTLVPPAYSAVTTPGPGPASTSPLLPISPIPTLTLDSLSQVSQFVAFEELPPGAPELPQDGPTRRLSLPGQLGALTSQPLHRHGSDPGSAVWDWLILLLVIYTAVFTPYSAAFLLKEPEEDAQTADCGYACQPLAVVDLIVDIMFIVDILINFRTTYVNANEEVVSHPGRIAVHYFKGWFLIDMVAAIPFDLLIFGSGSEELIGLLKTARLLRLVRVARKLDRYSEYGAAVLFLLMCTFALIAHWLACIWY
Protocol: as §1, §2, §3, §4

K+ currents = conditions: 0.4 mM nisoldipine; cited from earlier work
L-type Ca2+ channels = conditions: 0.4 mM nisoldipine; cited from earlier work
[4] = 1 μM, read-out: Cellular Electrophysiology (% Block), IKr
[5] = 10 μM, read-out: Cellular Electrophysiology (% Block), IKr
[6] = 1 μM, read-out: Cellular Electrophysiology (% Block), IKs
[7] = 10 μM, read-out: Cellular Electrophysiology (% Block), IKs
[8] = read-out: Cellular Electrophysiology (% Block), IKr
[9] = read-out: Cellular Electrophysiology (% Block), IKs
[10] = read-out: IC50 or % Block (μM), IKr (% block)

SMILES: CN(CCOc1ccc(NS(C)(=O)=O)cc1)CCc1ccc(NS(C)(=O)=O)cc1 [dofetilide]
block of IKr (IKr): predominantly, if not exclusively, block IKr

SMILES: CCCCc1oc2ccccc2c1C(=O)c1cc(I)c(OCCN(CC)CC)c(I)c1 [amiodarone]
inhibition of phospholipase (phospholipase): inhbitor of the enzyme phospholipase
block of IKs (IKs): blocker of IKs
effect on thyroid function (thyroid function): effects thyroid function
adrenergic block (adrenergic): nonspecific adrenergic blocker
block of Ca2+ currents (Ca2+ currents): blocks Na^+ and Ca^2+ currents
Class III properties / selectivity [1]: interesting Class III properties
Class III properties / selectivity ([1]; listed as Amiodarone): not a selective Class III antiarrhythmic agent
block of Na+ currents (Na+ currents): blocks Na^+ and Ca^2+ currents

SMILES: CN1C(=O)[C@H](NC(=O)C2CCC3(CC2)CCN(C(=O)OC(C)(C)C)CC3)N=C(c2ccccc2)c2ccccc21 [Example 40, (+)-N-[(3R)-2,3-Dihydro-1-methyl-2-oxo-5-phenyl-1H-1,4-benzo-diazepin-3-yl]-1'-(1,1-dimethylethoxycarbonyl)spiro(cyclohexan-4,4'-piperidine)-1-carboxamide]
IKs inhibition, purity of action ([2]; in words): not a pure IKs inhibitor

inhibition at 1 µM [2, 6]: 10%
inhibition at 10 µM [2, 7]: 30.5 ± 6.6%
IC50 ([2]; Guinea Pig Myocytes, read-out: IC50 or % Block (μM), IKs (bare number: IC50)): 57 µM
SMILES: CC(C)S(=O)(=O)NC(=O)c1cccc(NC(=O)NC2N=C(C3CCCCC3)c3ccccc3N(C)C2=O)c1 (stereo not shown) [Example 5]
inhibition at 1 µM [3, 4]: 16.1%
inhibition at 10 µM [3, 5]: 24.7 ± 13%
IC50 ([3]; Guinea Pig Myocytes, read-out: IC50 or % Block (μM), IKr (bare number: IC50)): 77 µM

SMILES: CN1C(=O)[C@H](N)N=C(c2ccccc2)c2ccccc21 [Example 7]
inhibition at 1 µM [3, 8]: 14.8 ± 6.7%
inhibition at 10 µM [3, 8]: 36.4 ± 2.9%
inhibition at 1 µM [2, 9]: 29.9 ± 6%
inhibition at 10 µM [2, 9]: 43.4 ± 10.8%

SMILES: COC(=O)C1=C(C)NC(C)=C(C(=O)OCC(C)C)C1c1ccccc1[N+](=O)[O-] (stereo not shown) [Nisoldipine]
effect on K+ currents (K+ currents): no effect on K^+ currents
block of L-type Ca2+ channels (L-type Ca2+ channels): relatively specific blocker of L-type Ca^2+ channels

SMILES: CN1C(=O)C(NC(=O)c2cc3ccccc3[nH]2)N=C(c2ccncc2)c2ccccc21 (stereo not shown) [Example 9]
inhibition at 1 µM [3, 4]: 44.3%
inhibition at 10 µM [3, 5]: 82.4%
inhibition at 1 µM [2, 6]: 20%
inhibition at 10 µM [2, 7]: 66%

SMILES: CS(=O)(=O)Nc1ccc2c(c1)C(O)CC1(CCN(C3CCc4cc(C#N)ccc4C3)CC1)O2 (single isomer, unassigned)
block of IKr (IKr): predominantly, if not exclusively, block IKr

SMILES: CC(C)NCC(O)c1ccc(NS(C)(=O)=O)cc1 (stereo not drawn) [d-sotalol]
block of IKr (IKr): predominantly, if not exclusively, block IKr

inhibition at 10 µM [2, 7]: 16 ± 11%
SMILES: Cc1cccc(NC(=O)NC2N=C(N3CCOCC3)c3ccccc3N(C)C2=O)c1 (stereo not shown) [Example 12]
inhibition at 1 µM [3, 4]: 13 ± 3.1%
inhibition at 10 µM [3, 5]: 30 ± 5.4%

SMILES: CN1C(=O)[C@@H](NC(=O)c2cc3ccccc3[nH]2)N=C(c2ccccc2)c2ccccc21 [Compound 2, 3(S)-(-)-1,3-dihydro-3-(2-indolecarbonylamino)-1-methyl-5-phenyl-2H-1,4-benzodiazepin-2-one]
inhibition at 1 µM [3, 10]: 21%
inhibition at 1 µM ([2]; read-out: IC50 or % Block (μM), IKs (% block)): 25%

SMILES: CN1C(=O)[C@H](NC(=O)c2cc3ccccc3[nH]2)N=C(c2ccccc2)c2ccccc21 [Compound 1, 3(R)-(+)-1,3-dihydro-3-(2-indolecarbonylamino)-1-methyl-5-phenyl-2H-1,4-benzodiazepin-2-one]
inhibition at 1 µM [3, 10]: 20%
